In publication doi:10.1101/2021.04.08.439011v1 (biorxiv, 2021):

Assays:
[1] = target: ABL1(E255K) (Homo sapiens, UniProt P00519, E255K); settings: phosphorylated; 1 µM; binder
[2] = target: AMPK-alpha1 (Homo sapiens, UniProt Q13131); settings: 1 µM; binder
[3] = target: ASK1 (Homo sapiens, UniProt Q99683); settings: 1 µM; binder
[4] = target: BRK (Homo sapiens, UniProt Q13882); settings: 1 µM; binder
[5] = target: CAMK1G (Homo sapiens, UniProt Q96NX5); settings: 1 µM; binder
[6] = target: CDKL2 (Homo sapiens, UniProt Q92772); settings: 1 µM; binder
[7] = target: CSNK1D (Homo sapiens, UniProt P48730); settings: 1 µM; binder
[8] = target: DDR1 (Homo sapiens, UniProt Q08345); settings: 1 µM; binder
[9] = target: EGFR(E746-A750del) (Homo sapiens, UniProt P00533, DEL746-750); settings: 1 µM; binder
[10] = target: EGFR(L858R) (Homo sapiens, UniProt P00533, L858R); settings: 1 µM; binder
[11] = target: GSK3A (Homo sapiens, UniProt P49840); settings: 1 µM; binder
[12] = target: JAK2 (Homo sapiens, UniProt O60674); settings: JH1 domain catalytic; binder
[13] = target: LIMK2 (Homo sapiens, UniProt P53671); settings: 1 µM; binder
[14] = target: MEK5 (Homo sapiens, UniProt Q13163); settings: 1 µM; binder
[15] = target: MRCKB (Homo sapiens, UniProt Q9Y5S2); settings: 1 µM; binder
[16] = target: MST2 (Homo sapiens, UniProt Q13188); settings: 1 µM; binder
[17] = target: MYLK4 (Homo sapiens, UniProt Q86YV6); settings: 1 µM; binder
[18] = target: PAK4 (Homo sapiens, UniProt O96013); settings: 1 µM; binder
[19] = target: PIP5K1C (Homo sapiens, UniProt O60331); settings: 1 µM; binder
[20] = target: PRKCD (Homo sapiens, UniProt Q05655); settings: 1 µM; binder
[21] = target: PRKCH (Homo sapiens, UniProt P24723); settings: 1 µM; binder
[22] = target: PRKD1 (Homo sapiens, UniProt Q15139); settings: 1 µM; binder
[23] = target: PYK2 (Homo sapiens, UniProt Q14289); settings: 1 µM; binder
[24] = target: RIPK4 (Homo sapiens, UniProt P57078); settings: 1 µM; binder
[25] = target: RPS6KA5 (Homo sapiens, UniProt O75582); settings: Kin.Dom.1 N-terminal; binder
[26] = target: TGFBR1 (Homo sapiens, UniProt P36897); settings: 1 µM; binder
[27] = target: ULK3 (Homo sapiens, UniProt Q6PHR2); settings: 1 µM; binder
[28] = target: WNK2 (Homo sapiens, UniProt Q9Y3S1); settings: 1 µM; binder
[29] = target: WNK4 (Homo sapiens, UniProt Q96J92); settings: 1 µM; binder
[30] = target: YSK4 (Homo sapiens, UniProt Q56UN5); settings: 1 µM; binder

WNK4, sequence (Q96J92 whole entry): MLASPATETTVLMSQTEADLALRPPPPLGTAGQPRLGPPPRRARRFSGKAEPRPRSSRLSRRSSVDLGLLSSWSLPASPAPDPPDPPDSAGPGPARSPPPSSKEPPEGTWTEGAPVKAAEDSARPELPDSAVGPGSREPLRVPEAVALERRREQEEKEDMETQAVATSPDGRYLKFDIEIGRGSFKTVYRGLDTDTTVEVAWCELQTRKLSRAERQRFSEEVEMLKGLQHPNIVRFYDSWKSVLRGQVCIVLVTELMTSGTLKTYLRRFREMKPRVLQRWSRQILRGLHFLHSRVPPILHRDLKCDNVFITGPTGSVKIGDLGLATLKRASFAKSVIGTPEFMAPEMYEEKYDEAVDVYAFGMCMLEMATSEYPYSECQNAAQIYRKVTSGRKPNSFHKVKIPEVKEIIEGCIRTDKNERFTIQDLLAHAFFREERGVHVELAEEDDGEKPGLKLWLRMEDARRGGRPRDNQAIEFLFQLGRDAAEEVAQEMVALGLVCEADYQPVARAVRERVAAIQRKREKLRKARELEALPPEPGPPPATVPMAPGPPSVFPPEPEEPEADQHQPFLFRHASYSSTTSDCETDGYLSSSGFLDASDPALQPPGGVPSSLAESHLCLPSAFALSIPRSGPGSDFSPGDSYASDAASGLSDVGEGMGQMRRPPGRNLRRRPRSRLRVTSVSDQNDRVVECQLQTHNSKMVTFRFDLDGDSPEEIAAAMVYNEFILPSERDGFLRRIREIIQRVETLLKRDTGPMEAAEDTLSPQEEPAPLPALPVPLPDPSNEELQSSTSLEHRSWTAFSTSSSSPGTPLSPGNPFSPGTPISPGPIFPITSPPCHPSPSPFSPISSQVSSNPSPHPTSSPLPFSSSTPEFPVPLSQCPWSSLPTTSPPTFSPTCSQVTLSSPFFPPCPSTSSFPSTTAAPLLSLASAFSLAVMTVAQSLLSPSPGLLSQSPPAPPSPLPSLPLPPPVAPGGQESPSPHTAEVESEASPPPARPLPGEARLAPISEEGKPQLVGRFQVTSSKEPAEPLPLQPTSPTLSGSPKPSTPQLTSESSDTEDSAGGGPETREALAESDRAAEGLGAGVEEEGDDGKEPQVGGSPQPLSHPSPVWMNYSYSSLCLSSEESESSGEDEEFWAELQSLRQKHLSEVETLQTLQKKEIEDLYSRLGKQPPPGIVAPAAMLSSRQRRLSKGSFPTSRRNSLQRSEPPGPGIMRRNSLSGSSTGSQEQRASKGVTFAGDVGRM
MYLK4, sequence (Q86YV6 whole entry): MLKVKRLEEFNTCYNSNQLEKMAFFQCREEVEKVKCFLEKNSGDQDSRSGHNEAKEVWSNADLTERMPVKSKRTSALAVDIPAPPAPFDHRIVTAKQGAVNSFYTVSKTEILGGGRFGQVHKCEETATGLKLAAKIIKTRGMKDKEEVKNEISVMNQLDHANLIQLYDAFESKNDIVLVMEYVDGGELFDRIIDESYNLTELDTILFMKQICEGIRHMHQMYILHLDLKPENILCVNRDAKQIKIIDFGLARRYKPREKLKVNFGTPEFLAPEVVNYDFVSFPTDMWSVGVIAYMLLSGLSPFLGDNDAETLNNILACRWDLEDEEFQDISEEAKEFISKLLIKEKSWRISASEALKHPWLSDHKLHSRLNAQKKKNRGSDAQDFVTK
CAMK1G, sequence (Q96NX5 whole entry): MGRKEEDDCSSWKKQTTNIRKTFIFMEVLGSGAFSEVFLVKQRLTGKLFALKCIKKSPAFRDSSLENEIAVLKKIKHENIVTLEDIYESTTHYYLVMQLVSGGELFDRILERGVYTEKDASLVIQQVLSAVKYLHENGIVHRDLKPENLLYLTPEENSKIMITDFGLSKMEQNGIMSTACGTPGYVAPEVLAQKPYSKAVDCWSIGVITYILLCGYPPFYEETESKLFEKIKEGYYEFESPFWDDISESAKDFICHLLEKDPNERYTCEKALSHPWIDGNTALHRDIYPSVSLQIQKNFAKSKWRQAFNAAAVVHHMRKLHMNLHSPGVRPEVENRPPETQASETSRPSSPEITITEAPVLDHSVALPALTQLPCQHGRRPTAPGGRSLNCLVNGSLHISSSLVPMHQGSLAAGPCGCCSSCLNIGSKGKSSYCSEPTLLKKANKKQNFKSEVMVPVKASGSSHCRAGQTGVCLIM
BRK, sequence (Q13882 whole entry): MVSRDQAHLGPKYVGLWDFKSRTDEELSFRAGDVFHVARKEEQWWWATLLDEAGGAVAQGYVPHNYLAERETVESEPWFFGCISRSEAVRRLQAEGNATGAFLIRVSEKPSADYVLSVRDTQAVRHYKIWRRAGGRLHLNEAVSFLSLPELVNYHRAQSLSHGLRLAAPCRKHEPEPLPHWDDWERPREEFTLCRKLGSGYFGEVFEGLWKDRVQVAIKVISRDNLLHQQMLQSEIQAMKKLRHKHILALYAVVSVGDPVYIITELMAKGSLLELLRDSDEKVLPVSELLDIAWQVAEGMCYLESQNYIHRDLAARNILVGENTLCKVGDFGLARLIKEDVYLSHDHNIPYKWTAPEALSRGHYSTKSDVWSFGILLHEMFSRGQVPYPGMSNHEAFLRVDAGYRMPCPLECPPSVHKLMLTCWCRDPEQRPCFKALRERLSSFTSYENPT
CDKL2, sequence (Q92772 whole entry): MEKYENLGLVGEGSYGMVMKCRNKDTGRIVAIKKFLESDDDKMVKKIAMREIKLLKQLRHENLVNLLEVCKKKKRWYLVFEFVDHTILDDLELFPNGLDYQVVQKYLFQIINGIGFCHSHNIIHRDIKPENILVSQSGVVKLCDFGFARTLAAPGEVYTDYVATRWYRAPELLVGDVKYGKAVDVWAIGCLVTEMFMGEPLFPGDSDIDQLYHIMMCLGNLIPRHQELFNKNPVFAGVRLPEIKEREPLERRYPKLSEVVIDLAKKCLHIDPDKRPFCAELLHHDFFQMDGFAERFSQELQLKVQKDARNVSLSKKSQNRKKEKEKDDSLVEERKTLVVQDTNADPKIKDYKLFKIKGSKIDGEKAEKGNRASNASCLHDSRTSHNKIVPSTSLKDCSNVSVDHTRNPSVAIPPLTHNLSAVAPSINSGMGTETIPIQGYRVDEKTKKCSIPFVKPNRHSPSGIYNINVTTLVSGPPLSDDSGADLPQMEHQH
MST2, sequence (Q13188 whole entry): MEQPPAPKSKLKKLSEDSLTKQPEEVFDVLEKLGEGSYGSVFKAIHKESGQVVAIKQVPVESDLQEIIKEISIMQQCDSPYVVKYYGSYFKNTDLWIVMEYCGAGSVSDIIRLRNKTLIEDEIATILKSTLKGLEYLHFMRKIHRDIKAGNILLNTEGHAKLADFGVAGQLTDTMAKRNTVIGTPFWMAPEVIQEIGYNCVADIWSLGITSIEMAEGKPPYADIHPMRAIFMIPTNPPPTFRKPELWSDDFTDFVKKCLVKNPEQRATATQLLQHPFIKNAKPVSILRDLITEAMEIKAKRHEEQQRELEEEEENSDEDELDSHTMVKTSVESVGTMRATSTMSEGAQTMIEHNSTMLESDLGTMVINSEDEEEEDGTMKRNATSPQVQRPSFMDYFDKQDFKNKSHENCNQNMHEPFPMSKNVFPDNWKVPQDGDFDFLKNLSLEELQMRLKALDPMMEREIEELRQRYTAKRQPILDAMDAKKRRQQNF
AMPK-alpha1, sequence (Q13131 whole entry): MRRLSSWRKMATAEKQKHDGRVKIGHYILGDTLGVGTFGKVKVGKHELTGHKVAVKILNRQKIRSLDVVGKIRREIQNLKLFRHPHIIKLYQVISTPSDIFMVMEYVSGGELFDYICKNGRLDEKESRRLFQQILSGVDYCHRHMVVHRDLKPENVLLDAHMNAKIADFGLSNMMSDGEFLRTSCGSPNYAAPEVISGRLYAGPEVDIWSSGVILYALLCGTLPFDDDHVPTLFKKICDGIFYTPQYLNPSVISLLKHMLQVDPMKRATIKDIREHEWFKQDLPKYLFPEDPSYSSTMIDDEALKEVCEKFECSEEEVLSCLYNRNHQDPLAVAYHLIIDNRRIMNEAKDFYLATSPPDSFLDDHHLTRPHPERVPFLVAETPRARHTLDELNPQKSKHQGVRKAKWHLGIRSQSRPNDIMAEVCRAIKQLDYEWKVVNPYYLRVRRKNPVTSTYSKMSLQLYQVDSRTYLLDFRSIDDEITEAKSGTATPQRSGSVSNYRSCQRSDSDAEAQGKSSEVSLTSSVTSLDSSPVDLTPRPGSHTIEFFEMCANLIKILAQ
ULK3, sequence (Q6PHR2 whole entry): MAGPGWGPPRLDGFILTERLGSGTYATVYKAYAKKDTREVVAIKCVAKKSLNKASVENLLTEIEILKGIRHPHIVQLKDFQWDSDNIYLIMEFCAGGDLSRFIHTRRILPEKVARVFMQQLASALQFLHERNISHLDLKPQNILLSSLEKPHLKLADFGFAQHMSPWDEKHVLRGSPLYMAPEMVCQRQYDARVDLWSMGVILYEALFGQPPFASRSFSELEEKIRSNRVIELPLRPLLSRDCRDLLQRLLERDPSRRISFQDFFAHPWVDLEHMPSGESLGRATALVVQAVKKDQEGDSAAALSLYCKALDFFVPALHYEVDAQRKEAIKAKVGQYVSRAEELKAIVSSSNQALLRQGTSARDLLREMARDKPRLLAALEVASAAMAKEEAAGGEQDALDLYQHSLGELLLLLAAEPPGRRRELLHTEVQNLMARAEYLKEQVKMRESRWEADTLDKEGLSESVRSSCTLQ
MEK5, sequence (Q13163 whole entry): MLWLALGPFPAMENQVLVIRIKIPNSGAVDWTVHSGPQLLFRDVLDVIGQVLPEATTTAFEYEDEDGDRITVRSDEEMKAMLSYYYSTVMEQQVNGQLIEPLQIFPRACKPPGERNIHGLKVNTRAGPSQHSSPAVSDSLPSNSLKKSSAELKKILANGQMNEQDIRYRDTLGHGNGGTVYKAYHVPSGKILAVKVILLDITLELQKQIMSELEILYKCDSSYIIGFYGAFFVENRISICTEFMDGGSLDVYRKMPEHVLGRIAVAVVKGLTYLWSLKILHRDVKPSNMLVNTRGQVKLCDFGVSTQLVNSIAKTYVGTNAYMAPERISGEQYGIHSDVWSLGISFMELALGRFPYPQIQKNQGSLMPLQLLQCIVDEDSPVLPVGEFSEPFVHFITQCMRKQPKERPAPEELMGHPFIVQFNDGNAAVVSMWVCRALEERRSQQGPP

CNc1ncc2cc(-c3ccc(-c4cccc(C)n4)cc3Cl)c(=O)n(C[C@H]3OC[C@H](N)CO3)c2n1 [compound 6, G-5555]
Percent Control [1]: 100% | Percent Control [2]: 40% | Percent Control [3]: 71% | Percent Control [4]: 100% | Percent Control [5]: 99% | Percent Control [6]: 58% | Percent Control [7]: 100% | Percent Control [8]: 53% | Percent Control [9]: 100% | Percent Control [10]: 85% | Percent Control [11]: 100% | Percent Control [12]: 83% | Percent Control [13]: 100% | Percent Control [14]: 0.2% | Percent Control [15]: 5.3% | Percent Control [16]: 27% | Percent Control [17]: 100% | Percent Control [18]: 77% | Percent Control [19]: 100% | Percent Control [20]: 100% | Percent Control [21]: 78% | Percent Control [22]: 17% | Percent Control [23]: 100% | Percent Control [24]: 100% | Percent Control [25]: 100% | Percent Control [26]: 100% | Percent Control [27]: 52% | Percent Control [28]: 88% | Percent Control [29]: 18% | Percent Control [30]: 19%
